What was measured:
CDK13 = target: T1, CDK13 (Homo sapiens, UniProt Q14004); assay: CDK13 degradation in MDA-MB-231 cells by immunoblotting; type: cell-based;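 as to Protein Degradation (%DMSO control, 0.3 μM) CDK13: percent of CDK13 protein degraded relative to DMSO control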
T1 construct: Immunoblotting of CDK12 and CDK13 in MDA-MB-231 cells treated with increasing concentrations of ZLC491 for 15 h; endogenous in cells; host or cells: MDA-MB-231
Procedure, shortened: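 MDA-MB-231 cells treated with ZLC491 at increasing concentrations for 15 h (screening at 0.3 μM; time course at 1 μM); SDS lysates immunoblotted, band intensities normalised to α-tubulin. DC50 taken from percent remaining protein versus concentration; representative of three independent experiments.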

[1] = test system: DDR proteins (BRCA1, RAD51, ATM); assay: Immunoblotting of DDR proteins in MDA-MB-231 cells; type: cell-based, human; details: MDA-MB-231, different doses, 48 h
Procedure: We next evaluated the effect of ZLC491 on the expression of DDR genes regulated by CDK12/13.
(A) Transcription level of DDR genes in MDA-MB-231 cells determined by RT-qPCR upon the treatment with vehicle or ZLC491 at different doses for 12 h, ROR1 was used as a negative control; (B) immunoblotting of DDR proteins in MDA-MB-231 cells after the treatment of ZLC491 at different doses for 48 h; (C) cell antiproliferative activity of ZLC491 in multiple TNBC cells as well as several noncancerous cells. Cells were treated with the compound for 5 days; (D,E) antiproliferative potency of cisplatin or olaparib alone or combined with ZLC491 at different doses in MDA-MB-231 cells for 5 days. Data are plotted using the percentage of absorbance relative to DMSO controls. (F) IC50 values and combination index (CI) in drug combination assay. In this model, CI scores estimate the interaction between the two drugs. If CI < 1, the drugs have a synergistic effect and if CI > 1, the drugs have an antagonistic effect. CI = 1 means the drugs have an additive effect. ^aThe drug combination in the table refers to the starting concentration of the two combined drugs, that would both go through serial dilution when treating cells. […]

CCNK = assay: Immunoblotting of CCNK in MDA-MB-231 cells; type: cell-based, human; details: MDA-MB-231, increasing concentrations, 15 h
Procedure: The global proteomic selectivity of ZLC491 was investigated by using the tandem mass tag (TMT) labeled mass-spectrometry. […] CDK13 was not detected in either degrader treatment groups or DMSO control groups, likely due to its insufficient cellular expression for mass spectrometry detection.
Generally, the tested cells were washed by ice-cold PBS buffer (Gibco) and lysed with an SDS lysis buffer (62.5 mM Tris, 2% w/v SDS, 10 glycerol, 50 mM DTT, 0.01% w/v bromophenol blue) on ice, after which the protein lysate samples were collected to 1.5 mL microcentrifuge tubes and treated with ultrasonic for 10 s, following with a 100 °C incubation for 10 min and a 4 °C centrifugation of 12000 rpm for 10 min. An equal amount of protein was loaded to 4–8% Bis-Tris gels and underwent an SDS-PAGE electrophoresis at 55V for 30 min and 95V for 90 min. Proteins on gels were then transferred to a polyvinylidene difluoride (PVDF) membrane (Bio-Rad) with a wet electro transfer system (Bio-Rad). The PVDF membrane was cut into bands and incubated in a blocking reagent (5% defatted milk powder dissolved in TBST) at room temperature for 1–2 h. Incubate membrane and primary antibody (at the appropriate dilution and diluent as recommended in the product webpage) at 4 °C for 12–14 h, followed with three times washes by TBST. […]

T1 sequence (Q14004 whole entry): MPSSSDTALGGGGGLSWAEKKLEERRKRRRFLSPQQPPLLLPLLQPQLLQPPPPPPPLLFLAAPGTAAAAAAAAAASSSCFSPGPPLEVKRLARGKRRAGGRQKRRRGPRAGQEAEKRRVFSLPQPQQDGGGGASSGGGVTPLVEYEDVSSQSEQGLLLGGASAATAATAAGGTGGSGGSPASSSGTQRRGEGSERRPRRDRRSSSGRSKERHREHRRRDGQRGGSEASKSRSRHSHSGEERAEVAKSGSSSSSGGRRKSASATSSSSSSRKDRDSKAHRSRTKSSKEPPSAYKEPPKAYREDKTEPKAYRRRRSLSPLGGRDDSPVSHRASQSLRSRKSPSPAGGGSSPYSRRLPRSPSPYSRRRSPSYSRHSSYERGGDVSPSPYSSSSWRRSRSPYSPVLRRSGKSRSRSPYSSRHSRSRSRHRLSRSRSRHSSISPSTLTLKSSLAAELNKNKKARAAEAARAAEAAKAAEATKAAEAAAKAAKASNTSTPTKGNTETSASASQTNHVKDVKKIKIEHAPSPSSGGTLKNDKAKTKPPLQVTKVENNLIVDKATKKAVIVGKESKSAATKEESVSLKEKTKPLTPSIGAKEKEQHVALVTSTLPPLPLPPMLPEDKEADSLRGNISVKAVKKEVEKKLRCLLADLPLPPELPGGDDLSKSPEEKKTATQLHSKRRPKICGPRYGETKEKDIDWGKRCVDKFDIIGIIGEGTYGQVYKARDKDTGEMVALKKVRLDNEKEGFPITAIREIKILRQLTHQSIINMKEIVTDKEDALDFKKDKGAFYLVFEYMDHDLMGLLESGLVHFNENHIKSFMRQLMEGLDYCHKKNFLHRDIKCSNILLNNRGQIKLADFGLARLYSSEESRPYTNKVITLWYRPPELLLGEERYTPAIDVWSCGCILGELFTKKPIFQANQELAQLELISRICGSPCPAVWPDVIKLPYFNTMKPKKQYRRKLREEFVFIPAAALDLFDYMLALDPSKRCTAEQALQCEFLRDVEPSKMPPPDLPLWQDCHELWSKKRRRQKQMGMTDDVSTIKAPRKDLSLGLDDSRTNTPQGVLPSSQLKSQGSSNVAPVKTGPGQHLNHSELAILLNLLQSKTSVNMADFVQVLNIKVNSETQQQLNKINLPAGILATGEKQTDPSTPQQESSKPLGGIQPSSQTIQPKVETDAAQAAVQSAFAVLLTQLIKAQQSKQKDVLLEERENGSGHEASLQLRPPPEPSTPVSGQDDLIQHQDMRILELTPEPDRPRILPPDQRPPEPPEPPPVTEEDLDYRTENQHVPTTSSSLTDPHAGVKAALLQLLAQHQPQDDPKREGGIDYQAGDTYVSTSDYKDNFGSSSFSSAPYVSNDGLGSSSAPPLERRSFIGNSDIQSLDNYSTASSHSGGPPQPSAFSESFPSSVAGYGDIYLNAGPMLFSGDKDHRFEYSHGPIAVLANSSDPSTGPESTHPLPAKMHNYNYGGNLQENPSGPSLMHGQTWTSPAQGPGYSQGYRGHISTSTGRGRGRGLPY
T1 sequence (O75909 whole entry partner): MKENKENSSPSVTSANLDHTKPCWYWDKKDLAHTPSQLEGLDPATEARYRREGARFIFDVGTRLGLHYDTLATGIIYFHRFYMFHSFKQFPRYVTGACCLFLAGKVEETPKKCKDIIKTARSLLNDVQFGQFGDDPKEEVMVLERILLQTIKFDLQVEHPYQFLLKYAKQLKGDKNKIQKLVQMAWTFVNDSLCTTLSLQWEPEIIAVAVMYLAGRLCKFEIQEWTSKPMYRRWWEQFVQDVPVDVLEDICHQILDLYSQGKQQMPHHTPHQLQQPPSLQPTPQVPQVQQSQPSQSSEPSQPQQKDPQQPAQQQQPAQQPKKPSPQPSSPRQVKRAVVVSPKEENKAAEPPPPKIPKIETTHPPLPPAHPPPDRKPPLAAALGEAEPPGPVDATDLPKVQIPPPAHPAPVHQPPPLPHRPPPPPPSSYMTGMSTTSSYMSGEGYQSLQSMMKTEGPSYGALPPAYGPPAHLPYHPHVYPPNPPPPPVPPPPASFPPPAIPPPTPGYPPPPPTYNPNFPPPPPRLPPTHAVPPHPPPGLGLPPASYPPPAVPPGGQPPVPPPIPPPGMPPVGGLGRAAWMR

SMILES: N#Cc1ccc(N[C@H]2CC[C@H](N(C(=O)NCc3ccccc3)c3ccc(N4CCN(C5CCN(c6cc7c(cc6F)C(=O)N(C6CCC(=O)NC6=O)C7=O)CC5)CC4)cc3)CC2)nc1 (stereo partly drawn) [ZLC491, 3-Benzyl-1-((1r,4r)-4-((5-cyanopyridin-2-yl)amino)cyclohexyl)-1-(4-(4-(1-(2-(2,6-dioxopiperidin-3-yl)-6-fluoro-1,3-dioxoisoindolin-5-yl)piperidin-4-yl)piperazin-1-yl)phenyl)urea]
- CDK13 degradation, immunoblotting of the proteomic samples (CDK13; 2 μM, 8 h, MDA-MB-231): significantly degraded
- Protein Degradation (%DMSO control, 0.3 μM) CDK13 (CDK13; MDA-MB-231 cells, 0.3 μM, 15 h, immunoblotting, normalized against α-tubulin): 90%
- DC50 (CDK13; MDA-MB-231 cells, 15 h): 28 nM
- Degradation rates of CDK13 at 0.3 μM (CDK13; supplementary CSV, 0.3 μM): 90%
- protein levels of DDR-relative proteins (BRCA1, RAD51, ATM) [1]: reduced
- CCNK degradation by Western blotting (CCNK): dose-dependently degraded

Source: PMC11513923, “Discovery of ZLC491 as a Potent, Selective, and Orally Bioavailable CDK12/13 PROTAC Degrader” (Journal of Medicinal Chemistry, 2024)
